Assay results as given in PMC5864050 (PLoS ONE, 2018).
Structures can show the parent of a compound that is named as a salt. Where two headings read alike, the source gives them in different places.

Legend:
MERS-CoV [1] = type: cell-based, MERS-CoV Jordan strain (Hu/Jordan-N3/2012)
Vero E6 cells = details: cited from earlier work
MERS-CoV [2] = type: cell-based, MERS-CoV Jordan strain (Hu/Jordan-N3/2012); remark: listed apart in the source
MERS-CoV [3] = details: cited from earlier work
Huh 7 cells = details: cited from earlier work
MERS-CoV [4] = details: read-out: EC50, MERS-CoV infection; cited from earlier work
MERS-CoV [5] = type: cell-based, MERS-CoV Jordan strain (Hu/Jordan-N3/2012); remark: listed apart in the source
in vitro = details: human
MERS-CoV [6] = test: microbe, parasite or virus in culture; type: cell-based, MERS-CoV Jordan strain (Hu/Jordan-N3/2012); details: for EC50: Middle East respiratory syndrome-related coronavirus
MERS-CoV and SARS-CoV = details: cited from earlier work
SARS-CoV = details: cited from earlier work

| Compound | activity against MERS-CoV infection by virus yield reduction (in words) (MERS-CoV [1]) | virus yield reduction (TCID50), drop (MERS-CoV [1]) | cytotoxicity (in words) (Vero E6 cells) | virus yield reduction (TCID50) (MERS-CoV [2]) | EC50 (MERS-CoV [3]) | CC50 (Huh 7 cells) | EC50 (MERS-CoV [4]) | cytotoxicity (in words) (immature MDDCs) | virus yield reduction (TCID50) (MERS-CoV [5]) | CC50 (in vitro) | selectivity index (SI = CC50÷EC50) (MERS-CoV [6]) | EC50 (MERS-CoV [6]; read-out: EC50, antiviral activity against MERS-CoV) | toxicity (in words) (MERS-CoV and SARS-CoV) | EC50 (SARS-CoV) | EC50, antiviral activity against MERS-CoV (MERS-CoV [6]) | EC50 (MERS-CoV [6]) |
| --- | --- | --- | --- | --- | --- | --- | --- | --- | --- | --- | --- | --- | --- | --- | --- | --- |
| CN(C)CCCN1c2ccccc2Sc2ccc(Cl)cc21 [CPZ, Chlorpromazine hydrochloride] | active | 3.1 log10 | low cytotoxicity | ~2 log10 | 9.5 µM | 21.3 µM | 4.9 µM | high cytotoxicity | ~2 log10 | 25.6 µM | 1.9 | 13.6 µM | – | – | – | – |
| CCN(CC)CCCC(C)Nc1ccnc2cc(Cl)ccc12 (stereo not drawn) [CQ, chloroquine diphosphate salt] | not active | – | – | no virus yield reduction | 6.3 µM | – | – | – | no virus yield reduction | – | – | – | low toxicity | – | – | – |
| CN(C)CCOc1ccc(/C(=C(/CCCl)c2ccccc2)c2ccccc2)cc1 [TOMF, Toremifene citrate] | not active | – | – | 1–1.5 log10 | – | – | – | – | 1–1.5 log10 | 22.5 µM | – | – | – | 12 µM | too low to determine an EC50 | 38 µM |
